Source: ChEMBL document CHEMBL4052739, “Discovery of a biarylamide series of potent, state-dependent NaV1.7 inhibitors” (Bioorg Med Chem Lett, 2017)
Values after ≈ are worked out from the molar mass of the structure shown.

What was measured:
[1] = test system: P-gp; assay: Apparent permeability in MDCK cells harboring Pgp; assay type: ADME, cell-based, Canis lupus familiaris; conditions: dog, MDCK-MDR1
[2] = Oral bioavailability in rat at 100 mg/kg administered via gavage by LC-MS/MS analysis; assay type: ADME, organism-based; conditions: in vivo
[3] = test system: Plasma; assay: Unbound drug uptake in plasma of Sprague-Dawley rat at 30 mg/kg, po; assay type: ADME, organism-based; conditions: in vivo
[4] = test system: Plasma; assay: Drug uptake in plasma of formalin-induced nociception Sprague-Dawley rat model at 100 mg/kg, po; assay type: ADME, organism-based; conditions: in vivo
[5] = test system: Plasma; assay: Drug uptake in Sprague-Dawley rat plasma at 30 mg/kg, po; assay type: ADME, organism-based; conditions: in vivo
[6] = test system: Plasma; assay: Drug uptake in plasma of Sprague-Dawley rat at 100 mg/kg, po; assay type: ADME, organism-based; conditions: in vivo
[7] = Ratio of drug uptake in brain to plasma of formalin-induced nociception Sprague-Dawley rat model at 100 mg/kg, po; assay type: ADME, organism-based; conditions: read-out: BPR
[8] = test system: Plasma; assay: Drug uptake in plasma of formalin-induced nociception Sprague-Dawley rat model at 30 mg/kg, po; assay type: ADME, organism-based; conditions: in vivo
[9] = test system: Plasma; assay: Unbound drug uptake in plasma of formalin-induced nociception Sprague-Dawley rat model at 30 mg/kg, po; assay type: ADME, organism-based; conditions: in vivo
[10] = test system: Plasma; assay: Unbound drug uptake in plasma of Sprague-Dawley rat at 100 mg/kg, po; assay type: ADME, organism-based; conditions: in vivo
[11] = Aqueous solubility of compound in PBS buffer; assay type: physicochemical
[12] = test system: Plasma; assay: Unbound drug uptake in plasma of Sprague-Dawley rat at 300 mg/kg, po; assay type: ADME, organism-based; conditions: in vivo
[13] = test system: Plasma; assay: Unbound drug uptake in plasma of formalin-induced nociception Sprague-Dawley rat model at 100 mg/kg, po; assay type: ADME, organism-based; conditions: in vivo
[14] = Volume of distribution at steady state in rat at 0.5 mg/kg, iv by LC-MS/MS analysis; assay type: ADME, organism-based; conditions: in vivo, read-out: Vdss
[15] = test system: Plasma; assay: Drug uptake in plasma of Sprague-Dawley rat at 300 mg/kg, po; assay type: ADME, organism-based; conditions: in vivo
[16] = Oral bioavailability in rat at 10 mg/kg administered via gavage by LC-MS/MS analysis; assay type: ADME, organism-based; conditions: in vivo
[17] = Oral bioavailability in rat at 40 mg/kg administered via gavage by LC-MS/MS analysis; assay type: ADME, organism-based; conditions: in vivo
[18] = Oral bioavailability in rat at 30 mg/kg administered via gavage by LC-MS/MS analysis; assay type: ADME, organism-based; conditions: in vivo

SMILES | Papp [1] [×10⁻⁶ cm/s] | solubility [11] [µM] | Vd [14] [L/kg] | bioavailability [16] [%] | other results
O=C(COc1cccc2cccnc12)Nc1ccccc1N1CCOCC1 | 37 | – | – | – | –
O=C(Nc1cccc(C(F)(F)F)c1-c1cccnc1)c1cccc(-c2ncccc2C(F)(F)F)c1 | – | 22 (≈ 10.7 µg/mL) | 0.57 | – | bioavailability [17]: 26%
O=C(Nc1cccc(C(F)(F)F)c1-c1cccnc1)c1cccc(-c2ncccc2OC(F)F)c1 | 31 | 56 (≈ 27.2 µg/mL) | 3 | – | bioavailability [18]: 92%

Now from value to compound, other results behind:

Papp [1] [×10⁻⁶ cm/s] | solubility [11] [µM] | Vd [14] [L/kg] | bioavailability [16] [%] | SMILES | other results
– | 470 (≈ 204 µg/mL) | 1.29 | – | Nc1cccnc1-c1cccc(C(=O)Nc2cccc(C(F)(F)F)c2-c2cccnc2)c1 | bioavailability [2]: 73%; Cp(f) [3]: 0.098 µM; concentration [4]: 1570 nM; concentration [5]: 549 nM; concentration [6]: 1800 nM; Kp [7]: 0.36; concentration [8]: 342 nM; Cp(f) [9]: 0.061 µM; Cp(f) [10]: 0.322 µM; Cp(f) [12]: 0.714 µM; Cp(f) [13]: 0.281 µM; concentration [15]: 3.99 µM
– | 10 (≈ 4.54 µg/mL) | 1.27 | 58 | O=C(Nc1cccc(C(F)(F)F)c1-c1cccnc1)c1cccc(-c2ncccc2Cl)c1 | –
– | 12 (≈ 5.03 µg/mL) | 1.4 | 54 | O=C(Nc1cccc(C(F)(F)F)c1-c1cccnc1)c1cccc(-c2ccccn2)c1 | –
